Assay results: US12590062B2, “PD-1/PD-L1 inhibitors” (Gilead Sciences, Inc., priority 2017, dated 2026)
pEC50, pIC50: −log10 of the molar value. One block for each molecule: values may come before it.

Experiments:
[1] = target: T1, PD-L1 (Homo sapiens, UniProt Q9NZQ7); assay: PD-L1/PD-L1 dimerization biochemical protein-protein interaction assay (ALPHA); assay type: binding; details: compound-induced PD-L1 dimerization, head prints '1 nM' (0.5 nM His-tagged PD-L1 and 0.5 nM FLAG-tagged PD-L1), read-out: AC50 PDL1 Dimer Alpha 1 nM
T1 construct: determine if they can specifically dimerize the extracellular domains of PD-L1
Method: PD-L1/PD-L1 Dimerization Biochemical Protein-Protein Interaction Assay:
Compounds were tested in biochemical protein-protein interaction assays to determine if they can specifically dimerize the extracellular domains of PD-L1. Dimerization of the proteins (His-tagged PD-L1 and FLAG-tagged PD-L1) is measured using a bead based Amplified Luminescent Proximity Homogeneous Assay (ALPHA) platform. […] Assays are performed in 25 mM Hepes (pH 7.4), 150 mM NaCl, 3.4 mM EDTA, 0.005% Tween 20, and 0.01% BSA. Final protein concentration in the assays were 0.5 nM (His tagged PD-L) and 0.5 nM (FLAG tagged PD-L1). After an assay reaction time of 2 hours at 25° C., 20 μg/mL (final assay concentration) ALPHA assay acceptor beads (anti-His coated) were added and incubated for 60 minutes at 25° C. Binding was measured following a final 60 minute incubation with 40 μg/mL (final assay concentration) ALPHA assay donor beads (anti-FLAG coated). AC50 values were calculated from the fit of the dose-response curves to a four-parameter equation (Table 3).

[2] = target: PD-1/PD-L1 (Homo sapiens, UniProt Q9NZQ7); assay: PD-1/PD-L1 biochemical protein-protein interaction assay (ALPHA); assay type: binding; details: 0.3 nM His tagged PD-L1, 2.5 nM biotinylated Fc-PD-1, 60 minutes at 25° C., read-out: IC50 PD-L1-PD-1 Alpha IC50-mono PD-L1-fcP-D1
Procedure, shortened: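 Compounds are tested for blocking the PD-1/PD-L1 extracellular-domain interaction using an ALPHA bead assay, in which inhibition lowers the luminescent signal. Reactions run 60 min at 25° C with 0.3 nM His-PD-L1 and 2.5 nM biotinylated Fc-PD-1. IC50 values come from four-parameter fits.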

[3] = target: T2, PD-1/PD-L1 interaction (Homo sapiens, UniProt Q9NZQ7); assay: PD-1/PD-L1 NFAT reporter co-culture assay; assay type: cell-based; details: Jurkat PD-1 NFAT-luciferase cells co-cultured with aAPC-PD-L1 CHO cells, 6 hrs at 37° C.; read-out: EC50 NFAT Luciferase
T2 construct: expressed in transfected cells; host or cells: CHO cells (aAPC-PD-L1) co-cultured with Jurkat cells overexpressing PD-1 and an NFAT-luciferase reporter
Procedure, shortened: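 CHO aAPC-PD-L1 seeded overnight; PD-1/NFAT-luc Jurkat + cpd in RPMI 1640, 2% FBS added at once; 6 h, 37 °C; ONE-Glo luminescence; EC50, 4-parameter fit.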

T2 sequence (Q9NZQ7 19-290): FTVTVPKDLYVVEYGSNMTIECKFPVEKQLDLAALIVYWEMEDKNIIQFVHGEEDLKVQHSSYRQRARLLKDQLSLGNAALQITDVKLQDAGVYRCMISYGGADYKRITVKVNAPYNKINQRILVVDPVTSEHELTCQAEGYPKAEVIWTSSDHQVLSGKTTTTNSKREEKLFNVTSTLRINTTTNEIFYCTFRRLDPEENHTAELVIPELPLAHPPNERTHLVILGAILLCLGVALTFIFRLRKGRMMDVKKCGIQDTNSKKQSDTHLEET
PD-1/PD-L1, sequence (Q9NZQ7 19-238 limits assumed): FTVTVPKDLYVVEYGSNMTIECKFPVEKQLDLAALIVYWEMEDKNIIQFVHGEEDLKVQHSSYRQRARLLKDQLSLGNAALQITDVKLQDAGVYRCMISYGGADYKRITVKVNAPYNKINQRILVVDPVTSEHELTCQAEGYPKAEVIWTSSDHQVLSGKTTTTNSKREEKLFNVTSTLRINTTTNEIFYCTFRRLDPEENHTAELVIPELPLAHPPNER
T1 sequence (Q9NZQ7 19-238 limits assumed): as above
T1 sequence (Q9NZQ7 19-238 limits assumed): as above

SMILES: Cc1c(COc2cc(OCc3cncc(C#N)c3)c(CNC[C@@H](O)CC(=O)O)cc2Cl)cccc1-c1cccc(COc2cc(OCc3cncc(C#N)c3)c(CNC[C@@H](O)CC(=O)O)cc2Cl)c1C [Example 66, (3S,3′S)-4,4′-((((((2,2′-dimethyl-[1,1′-biphenyl]-3,3′-diyl)bis(methylene))bis(oxy))bis(5-chloro-2-((5-cyanopyridin-3-yl)methoxy)-4,1-phenylene))bis(methylene))bis(azanediyl))bis(3-hydroxybutanoic acid)]
- AC50 [1]: 370 nM
- pIC50 [2]: 9.40
- pEC50 [3]: 6.47

SMILES: Cc1c(COc2nc(OCCCC#N)c(CNC[C@@H](O)CC(=O)O)cc2Br)cccc1-c1cccc(COc2nc(OCCCC#N)c(CNC[C@@H](O)CC(=O)O)cc2Br)c1C [Example 144, (3S,3′S)-4,4′-((((((2,2′-dimethyl-[1,1′-biphenyl]-3,3′-diyl)bis(methylene))bis(oxy))bis(5-bromo-2-(3-cyanopropoxy)pyridine-6,3-diyl))bis(methylene))bis(azanediyl))bis(3-hydroxybutanoic acid)]
- AC50 [1]: 206 nM
- pEC50 [3]: 6.70

SMILES: N#Cc1cncc(COc2nc(OCc3cccc(-c4cccc(COc5nc(OCc6cncc(C#N)c6)c(CNC[C@@H](O)CC(=O)O)cc5Br)c4Cl)c3Cl)c(Br)cc2CNC[C@@H](O)CC(=O)O)c1 [Example 193, (3S,3′S)-4,4′-((((((2,2′-Dichloro-[1,1′-biphenyl]-3,3′-diyl)bis(methylene))bis(oxy))bis(5-bromo-2-((5-cyanopyridin-3-yl)methoxy)pyridine-6,3-diyl))bis(methylene))bis(azanediyl))bis(3-hydroxybutanoic acid)]
- AC50 [1]: 132 nM
- pEC50 [3]: 7.00

SMILES: N#Cc1cncc(COc2nc(OCc3cccc(-c4cccc(COc5nc(OCc6cncc(C#N)c6)c(CNC[C@H](O)CC(=O)O)cc5Br)c4Cl)c3Cl)c(Br)cc2CNC[C@H](O)CC(=O)O)c1 [Example 196, (3R,3′R)-4,4′-((((((2,2′-Dichloro-[1,1′-biphenyl]-3,3′-diyl)bis(methylene))bis(oxy))bis(5-bromo-2-((5-cyanopyridin-3-yl)methoxy)pyridine-6,3-diyl))bis(methylene))bis(azanediyl))bis(3-hydroxybutanoic acid)]
- AC50 [1]: 223 nM
- pEC50 [3]: 6.82

SMILES: Cc1c(COc2cc(OCc3cncc(C#N)c3)c(CNC[C@@H](O)CC(=O)O)cc2Cl)cccc1-c1cccc(-c2ccc3oc(CNC[C@@H](O)CC(=O)O)cc3c2)c1C [Example 210, (S)-4-(((5-(3′-((4-((((S)-3-carboxy-2-hydroxypropyl)amino)methyl)-2-chloro-5-((5-cyanopyridin-3-yl)methoxy)phenoxy)methyl)-2,2′-dimethyl-[1,1′-biphenyl]-3-yl)benzofuran-2-yl)methyl)amino)-3-hydroxybutanoic acid]
- AC50 [1]: 83.1 nM
- pEC50 [3]: 6.94

SMILES: Cc1c(COc2cc(OCc3cc(C#N)ccn3)c(CNC[C@@H](O)CC(=O)O)cc2Cl)cccc1-c1cccc(COc2cc(OCc3cc(C#N)ccn3)c(CNC[C@@H](O)CC(=O)O)cc2Cl)c1C [Example 225, (3S,3′S)-4,4′-((((((2,2′-dimethyl-[1,1′-biphenyl]-3,3′-diyl)bis(methylene))bis(oxy))bis(5-chloro-2-((4-cyanopyridin-2-yl)methoxy)-4,1-phenylene))bis(methylene))bis(azanediyl))bis(3-hydroxybutanoic acid)]
- AC50 [1]: 423 nM
- pEC50 [3]: 6.84

SMILES: CNC(=O)COc1nc(O[C@H]2CCc3c(-c4cccc(-c5ccc(OCCNC[C@@H](O)CC(=O)O)cc5)c4C)cccc32)c(Br)cc1CNC[C@@H](O)CC(=O)O [Example 754]
- pIC50 [2]: 10.04
- pEC50 [3]: 6.36

The next lines start with the values.

- AC50 [1]: 195 nM
- pIC50 [2]: 9.22
- pEC50 [3]: 5.84
SMILES: Cc1c(COc2nc(OCc3cccnc3)c(CNC[C@@H](O)CC(=O)O)cc2Br)cccc1-c1cccc(COc2nc(OCc3cccnc3)c(CNC[C@@H](O)CC(=O)O)cc2Br)c1C [Example 137, (3S,3′S)-4,4′-((((((2,2′-dimethyl-[1,1′-biphenyl]-3,3′-diyl)bis(methylene))bis(oxy))bis(5-bromo-2-(pyridin-3-ylmethoxy)pyridine-6,3-diyl))bis(methylene))bis(azanediyl))bis(3-hydroxybutanoic acid)]

- AC50 [1]: ≥ 10000 nM
- pEC50 [3]: 7.22
SMILES: COc1nc(OCc2cccc(-c3cccc(COc4nc(OC)c(CNC[C@H](O)CC(=O)O)cc4Br)c3Cl)c2Cl)c(Br)cc1CNC[C@H](O)CC(=O)O [Example 191, (3R,3′R)-4,4′-((((((2,2′-Dichloro-[1,1′-biphenyl]-3,3′-diyl)bis(methylene))bis(oxy))bis(5-bromo-2-methoxypyridine-6,3-diyl))bis(methylene))bis(azanediyl))bis(3-hydroxybutanoic acid)]

- AC50 [1]: ≥ 10000 nM
- pEC50 [3]: 6.65
SMILES: Cc1c(OCc2cc(OCc3cncc(C#N)c3)c(CN[C@@](C)(CO)C(=O)O)cc2Cl)cccc1-c1cccc(-c2ccc(OCCN[C@@](C)(CO)C(=O)O)cc2)c1C [Example 388, (S)-2-((4-(((4″-(2-(((S)-2-carboxy-1-hydroxypropan-2-yl)amino)ethoxy)-2,2′-dimethyl-[1,1′:3′,1″-terphenyl]-3-yl)oxy)methyl)-5-chloro-2-((5-cyanopyridin-3-yl)methoxy)benzyl)amino)-3-hydroxy-2-methylpropanoic acid]

- AC50 [1]: 728 nM
- pEC50 [3]: 5.96
SMILES: Cc1c(COc2cc(OCc3cncc(C#N)c3)c(CNC[C@@H](O)CC(=O)O)cc2Cl)cccc1-c1cccc(-c2ccc3cc(CNC[C@@H](O)CC(=O)O)ccc3n2)c1C [Example 398, (S)-4-(((2-(3′-((4-((((S)-3-carboxy-2-hydroxypropyl)amino)methyl)-2-chloro-5-((5-cyanopyridin-3-yl)methoxy)phenoxy)methyl)-2,2′-dimethyl-[1,1′-biphenyl]-3-yl)quinolin-6-yl)methyl)amino)-3-hydroxybutanoic acid]

- AC50 [1]: 289 nM
- pEC50 [3]: 6.50
SMILES: Cc1c(COc2cc(OCc3cncc(C#N)c3)c(CNC[C@@H](O)CC(=O)O)cc2Cl)cccc1-c1cccc(-c2ccc3sc(CNC[C@@H](O)CC(=O)O)nc3c2)c1C [Example 399, (S)-4-(((5-(3′-((4-((((S)-3-carboxy-2-hydroxypropyl)amino)methyl)-2-chloro-5-((5-cyanopyridin-3-yl)methoxy)phenoxy)methyl)-2,2′-dimethyl-[1,1′-biphenyl]-3-yl)benzo[d]thiazol-2-yl)methyl)amino)-3-hydroxybutanoic acid]

- pIC50 [2]: 9.23
- pEC50 [3]: 6.92
SMILES: CS(=O)(=O)c1cncc(COc2nc(O[C@H]3CCc4c(-c5cccc6c5CC[C@@H]6Oc5nc(OCc6cncc(S(C)(=O)=O)c6)c(CN6C[C@@H](O)CC6=O)cc5Cl)cccc43)c(Cl)cc2CNC[C@@H](O)CC(=O)O)c1 [Example 693]

- pIC50 [2]: 10.29
- pEC50 [3]: 7.02
SMILES: CS(=O)(=O)c1cncc(COc2nc(O[C@H]3CCc4c(-c5cccc6c5CC[C@@H]6Oc5nc(OCc6cncc(S(C)(=O)=O)c6)c(CNC[C@@H](O)CC(=O)O)cc5Cl)cccc43)c(Cl)cc2CNC[C@@H](O)CC(=O)O)c1 [Example 694]

- pIC50 [2]: 10.19
- pEC50 [3]: 7.46
SMILES: Cc1c(-c2ccc(OCCNC[C@@H](O)CC(=O)O)cc2)cccc1-c1cccc2c1CC[C@@H]2Oc1nc(OCc2cc(C#N)cc(C#N)c2)c(CNC[C@@H](O)CC(=O)O)cc1Br [Example 753]

- pIC50 [2]: 8.94
- pEC50 [3]: 5.18
SMILES: CNC(=O)COc1nc(O[C@H]2CCc3c(-c4cccc(-c5ccc(OCCNC[C@@H](O)CC(=O)O)cc5)c4C)cccc32)ccc1CNC[C@@H](O)CC(=O)O [Example 756]
